{
  "source": "patent US20100305023A1",
  "about": "“Method of Delaying The Onset of Clinically Definite Multiple Sclerosis” (Teva Pharmaceutical Industries, Ltd., priority 2007, published 2010)",
  "key": {"[1]": {"tested_on": "patients presenting a clinically isolated syndrome (CIS)", "description": "Subgroup analyses related to the primary efficacy variable were performed with respect to demographics and CIS characteristics at initial attack onset (gender, age, and type of unifocal manifestation and steroid treatment for the initial attack), and MRI findings (disease dissemination/activity) at study baseline.\nNo correction for multiplicity was done for any of the following post-hoc analyses. • 1. Subgroup analysis of the primary endpoint for: gender, age, type of unifocal manifestation and corticosteroid use for the initial attack employed the Cox proportional hazards model, as for the principal analysis. Subgroup analyses of proportion of subjects converted to CDMS according to MRI activity at baseline was analyzed using Logistic Regression, as in the fourth secondary endpoint. • 2. Number of relapses: analysis of number of relapses during the placebocontrolled phase, during the entire study and on a yearly basis was performed using the Poisson regression. • 3. Time to confirmed Expanded Disability Status Scale (EDSS) progression: Progression of disability was defined as worsening of at least 1 point in EDSS sustained over 2 consecutive measurements which are at least 6 months apart. Analysis of time to confirmed EDSS progression was performed employing the Cox proportional hazards model.\nSubgroups were created for demographics and CIS characteristics at onset (gender, age, and type of unifocal presentation and steroid treatment for the initial attack), and MRI findings (disease dissemination/activity) at study baseline."}, "[2]": {"tested_on": "patients presenting a clinically isolated syndrome (CIS)", "remark": "listed apart in the source", "procedure": "A clinical trial was undertaken to assess the effect of treatment with GA compared to placebo on the time to conversion to CDMS, as determined by Poser (the occurrence of the second clinical attack) during the double-blind phase.\nSubjects receive their first dose of study medication at the baseline visit. 20 mg GA formulation is injected once daily by subcutaneous route via pre-filled syringe manufactured by Teva Pharmaceutical Industries Ltd., Israel. Subjects are evaluated at study centers at baseline, at months 1, 3, and every 3 months thereafter.\nThe duration of the double-blind phase is 36 months (3 years) or until subject's conversion to CDMS, whichever comes first. Conversion to CDMS is counted when the subject's symptoms are accompanied by observed objective neurological changes, consistent with: • a) an increase of at least 0.5 in the EDSS score or one grade in the score of two or more of the seven Functional Systems (FS); or • b) two grades in the score of one of FS as compared to the previous evaluation.\nThe subject must not be undergoing any acute metabolic changes such as fever or other medical abnormality. A change in bowel/bladder function or in cognitive function must not be entirely responsible for the changes in EDSS or FS scores."}, "[3]": {"tested_on": "patients presenting a clinically isolated syndrome (CIS)", "remark": "listed apart in the source", "procedure": "A clinical trial was undertaken to assess, within the time frame of the up to 3-years placebo-controlled study period, the effect of GA on clinical and MRI parameters.\nSubjects received their first dose of study medication at the baseline visit. 20 mg GA formulation was injected once daily by subcutaneous route via pre-filled syringe manufactured by Teva Pharmaceutical Industries Ltd., Israel. The duration of the double-blind phase is 36 months (3 years) or until subject's conversion to CDMS, whichever comes first."}, "[4]": {"tested_on": "subjects with clinically isolated syndrome (CIS) suggestive of MS", "details": "MRS, NAA/Cr over time", "procedure": "Single voxel magnetic resonance spectroscopy (MRS) exams were performed at baseline and once a year subsequently. Scans were quantified locally and sent to the MRS Unit (Montreal) where they were deemed acceptable or in need of repeat (either acquisition or analysis). The MRS endpoint is the change in the ratio of N-acetylaspartate/creatine (NAA/Cr) ratio over time. NAA is seen only in neuronal tissue and is a marker of neuronal integrity; reducing with most types of insults to the brain. Cr is often used as an internal reference because it is relatively stable.\nMRS scans were performed after T2-weighted fast-spin-time echo (FSE/TSE) scans and before gadolinium injection. MRS data was obtained from a region of central white matter using a 90-180-180 (PRESS) volume selective sequence to excite a volume of 100 mm×100 mm×20 mm (range 80-100 mm×80-100 mm×20 mm) centered on the body of the corpus callosum using a long echo time (TR 2000, TE 272). The rotation of the acquisition region was the same as for the main image series. […] The region was centered left-right so that the brain mid-line passes centrally through the region. The region was positioned anterior-posterior so that the anterior corners and posterior corners are equidistant from the skull."}, "[5]": {"tested_on": "patients presenting a clinically isolated syndrome (CIS)", "details": "early treatment vs delayed start of treatment with GA", "procedure": "A clinical trial was undertaken to assess, within the time frame of 5 years, the neuroprotective effect of early versus delayed treatment with GA as reflected by clinical and MRI parameters measuring the accumulated irreversible brain tissue damage.\nSubjects are evaluated at study centers at baseline, at months 1, 3, and every 3 months thereafter. MRI evaluations of T1 and T2 variables are assessed at screening, baseline, at 3 months, and every 3 months thereafter until conversion to CDMS or up to 3 years. An additional MRI assessment is performed upon conversion to CDMS only if no MRI is performed within the previous month. MRI is then performed at the next scheduled visit and every 6 months thereafter.\nBrain atrophy, as measured by the change in brain volume according to the Structural Image Evaluation of Normalized Atrophy (SIENA) technique is assessed at baseline, every 12 months and at conversion to CDMS.\nThe volume of black holes is assessed at baseline and at every 6 months.\nThe count of new T1-weighted hypointense lesions is assessed every 6 months.\nExploratory endpoints are defined to assess the neuroprotective effect as reflected by clinical and MRI parameters comparing the group originally assigned to GA treatment with that randomized to receive placebo treatment (delayed start of treatment with GA). The 5-year data cohort will be used for inference. […]"}, "patients with RRMS": {"tested_on": "patients with RRMS", "details": "cited from earlier work"}, "[6]": {"details": "20 mg once daily s.c. vs placebo"}},
  "note": "Where two headings read alike, the source gives them in different places.",
  "data": [
    {"substance": "L-glutamic acid polymer with L-alanine, L-lysine, L-tyrosine, acetate (salt) [glatiramer acetate]", "values": [
      {"measurement": "Risk Reduction with Copaxone over Placebo", "setting": "[1]; Age <30 years, listed as Copaxone ®", "value": 53, "unit": "%"},
      {"measurement": "Risk Reduction with Copaxone over Placebo", "setting": "[1]; Age <30 years, listed as Copaxone®", "value": 53, "unit": "%"},
      {"measurement": "% CDMS in the placebo-controlled phase", "setting": "[1]; Age >=30 years", "value": 15, "unit": "%"},
      {"measurement": "% CDMS in the placebo-controlled phase", "setting": "[1]; Corticosteroids use for initial attack: No", "value": 9, "unit": "%"},
      {"measurement": "Risk Reduction with Copaxone over Placebo", "setting": "[1]; Corticosteroids use for initial attack: No, listed as Copaxone ®", "value": 54, "unit": "%"},
      {"measurement": "Risk Reduction with Copaxone over Placebo", "setting": "[1]; Corticosteroids use for initial attack: No, listed as Copaxone®", "value": 54, "unit": "%"},
      {"measurement": "% CDMS in the placebo-controlled phase", "setting": "[1]; Corticosteroids use for initial attack: Yes", "value": 16, "unit": "%"},
      {"measurement": "% CDMS in the placebo-controlled phase", "setting": "[1]; Sex: Female", "value": 14, "unit": "%"},
      {"measurement": "Risk Reduction with Copaxone over Placebo", "setting": "[1]; Sex: Female, listed as Copaxone ®", "value": 48, "unit": "%"},
      {"measurement": "Risk Reduction with Copaxone over Placebo", "setting": "[1]; Sex: Female, listed as Copaxone®", "value": 48, "unit": "%"},
      {"measurement": "% CDMS in the placebo-controlled phase", "setting": "[1]; Sex: Male", "value": 11, "unit": "%"},
      {"measurement": "Risk Reduction with Copaxone over Placebo", "setting": "[1]; Sex: Male, listed as Copaxone ®", "value": 43, "unit": "%"},
      {"measurement": "Risk Reduction with Copaxone over Placebo", "setting": "[1]; Sex: Male, listed as Copaxone®", "value": 43, "unit": "%"},
      {"measurement": "% CDMS in the placebo-controlled phase", "setting": "[1]; T1 Gd-enhancing lesions at baseline: T1 = 0 lesions", "value": 14, "unit": "%"},
      {"measurement": "Risk Reduction with Copaxone over Placebo", "setting": "[1]; T1 Gd-enhancing lesions at baseline: T1 = 0 lesions, listed as Copaxone ®", "value": 44, "unit": "%"},
      {"measurement": "Risk Reduction with Copaxone over Placebo", "setting": "[1]; T1 Gd-enhancing lesions at baseline: T1 = 0 lesions, listed as Copaxone®", "value": 44, "unit": "%"},
      {"measurement": "% CDMS in the placebo-controlled phase", "setting": "[1]; T1 Gd-enhancing lesions at baseline: T1 >= 1 lesions", "value": 11, "unit": "%"},
      {"measurement": "Risk Reduction with Copaxone over Placebo", "setting": "[1]; T1 Gd-enhancing lesions at baseline: T1 >= 1 lesions, listed as Copaxone ®", "value": 71, "unit": "%"},
      {"measurement": "Risk Reduction with Copaxone over Placebo", "setting": "[1]; T1 Gd-enhancing lesions at baseline: T1 >= 1 lesions, listed as Copaxone®", "value": 71, "unit": "%"},
      {"measurement": "% CDMS in the placebo-controlled phase", "setting": "[1]; T2 lesions at baseline: 2-8 lesions", "value": 3, "unit": "%"},
      {"measurement": "Risk Reduction with Copaxone over Placebo", "setting": "[1]; T2 lesions at baseline: 2-8 lesions, listed as Copaxone ®", "value": 67, "unit": "%"},
      {"measurement": "Risk Reduction with Copaxone over Placebo", "setting": "[1]; T2 lesions at baseline: 2-8 lesions, listed as Copaxone®", "value": 67, "unit": "%"},
      {"measurement": "% CDMS in the placebo-controlled phase", "setting": "[1]; T2 lesions at baseline: >=9 lesions", "value": 22, "unit": "%"},
      {"measurement": "Risk Reduction with Copaxone over Placebo", "setting": "[1]; T2 lesions at baseline: >=9 lesions, listed as Copaxone ®", "value": 58, "unit": "%"},
      {"measurement": "Risk Reduction with Copaxone over Placebo", "setting": "[1]; T2 lesions at baseline: >=9 lesions, listed as Copaxone®", "value": 58, "unit": "%"},
      {"measurement": "% CDMS in the placebo-controlled phase", "setting": "[1]; Unifocal manifestation: Optic", "value": 6, "unit": "%"},
      {"measurement": "Risk Reduction with Copaxone over Placebo", "setting": "[1]; Unifocal manifestation: Optic, listed as Copaxone ®", "value": 66, "unit": "%"},
      {"measurement": "Risk Reduction with Copaxone over Placebo", "setting": "[1]; Unifocal manifestation: Optic, listed as Copaxone®", "value": 66, "unit": "%"},
      {"measurement": "% CDMS in the placebo-controlled phase", "setting": "[1]; Unifocal manifestation: Spinal", "value": 7, "unit": "%"},
      {"measurement": "Risk Reduction with Copaxone over Placebo", "setting": "[1]; Unifocal manifestation: Spinal", "value": 17, "unit": "%"},
      {"measurement": "prolongation of the quartile time to CDMS", "setting": "[2]; [6]", "value": 115, "unit": "%"},
      {"measurement": "reduction of the risk in developing clinically definite MS (CDMS)", "setting": "[2]; [6]", "value": 44, "unit": "%"},
      {"measurement": "Kaplan-Meier time to conversion to CDMS, 25% percentile", "setting": "[2]; 20 mg once daily s.c., ITT, placebo 336 days", "value": 722, "unit": "days"},
      {"measurement": "patients who developed CDMS at the end of the two-year study", "setting": "[3]; 20 mg once daily s.c., placebo 43 percent", "value": 25, "unit": "%"},
      {"measurement": "probability of development of CDMS over 3 years (Kaplan-Meier estimates)", "setting": "[3]; 20 mg once daily s.c., placebo 65%", "value": 36.4, "unit": "%"},
      {"measurement": "treatment effect in decreasing the rate of new T2 lesions at LOV", "setting": "[3]; 20 mg vs placebo, last observed value", "value": 58, "unit": "%"},
      {"measurement": "reduction of new T1 Gd-enhancing lesions in comparison to placebo, annual comparison", "setting": "[3]; 12 months", "value": "> 4.8", "unit": "fold"},
      {"measurement": "reduction of new T2 lesions in comparison to placebo, annual comparison", "setting": "[3]; 12 months", "value": 6, "unit": "fold"},
      {"measurement": "reduction of new T2 lesions in comparison to placebo, annual comparison", "setting": "[3]; 24 months", "value": 4, "unit": "fold"},
      {"measurement": "reduction of new lesions in comparison to placebo, annual comparison of T1 Gd-enhancing lesions", "setting": "[3]; 24 months", "value": "approximately 3.8 fold"},
      {"measurement": "Number of new T2 lesions at LOV, max", "setting": "[3]; GA 20 mg", "value": 15},
      {"measurement": "Number of new T2 lesions at LOV, median", "setting": "[3]; GA 20 mg", "value": 0},
      {"measurement": "Number of new T2 lesions at LOV, min", "setting": "[3]; GA 20 mg", "value": 0},
      {"measurement": "Number of new T2 lesions at LOV, mean", "setting": "[3]; GA 20 mg, placebo 1.8", "value": 0.7},
      {"measurement": "reduction of new T1 Gd-enhancing lesions in comparison to placebo, annual comparison", "setting": "[3]; ITT cohort, 12 months", "value": "> 4.5", "unit": "fold"},
      {"measurement": "reduction of new T2 lesions in comparison to placebo, annual comparison", "setting": "[3]; ITT cohort, 12 months", "value": "> 3", "unit": "fold"},
      {"measurement": "reduction of new T2 lesions in comparison to placebo, annual comparison", "setting": "[3]; ITT cohort, 24 months", "value": "approximately 4 fold"},
      {"measurement": "reduction of new lesions in comparison to placebo, annual comparison of T1 Gd-enhancing lesions", "setting": "[3]; ITT cohort, 24 months", "value": "approximately 3 fold"},
      {"measurement": "reduction of the cumulative number of new T1 Gd-enhancing lesions at LOV compared to placebo", "setting": "[3]; last observed value", "value": 619},
      {"measurement": "cumulative number of new T1 Gd-enhancing lesions at LOV", "setting": "[3]; placebo 1.19", "value": 0.46},
      {"measurement": "axonal damage", "setting": "[4]", "value": "reduces"},
      {"measurement": "5-year relapse rate", "setting": "[5]", "value": "decreased"},
      {"measurement": "level of disability (EDSS Score)", "setting": "[5]", "value": "reduced"},
      {"measurement": "proportion of patients who convert to CDMS during the 5-year treatment period", "setting": "[5]", "value": "decreased"},
      {"measurement": "time from randomization to conversion to CDMS during the 5-year period", "setting": "[5]", "value": "increased"},
      {"measurement": "total number of enhancing lesions as measured by MRI", "setting": "patients with RRMS; 20 and 40 mg/day subcutaneous, MS patients", "value": "reduce"},
      {"measurement": "efficacy in reducing the frequency of relapses", "setting": "patients with RRMS; patients with RRMS", "value": "well established"}
    ]}
  ]
}
